Measured values published in publication PMC10451018 (Protein Science : A Publication of the Protein Society, 2023).

Assays:
[1] = molecular target: T1, Azorhizobium caulinodans malic enzyme, AcME (Azorhizobium caulinodans, UniProt A8IFW0); experiment: spectrophotometric NADH formation at […] nm; format: biochemical; details: L-malate as co-substrate
T1 sequence (A8IFW0 1-759): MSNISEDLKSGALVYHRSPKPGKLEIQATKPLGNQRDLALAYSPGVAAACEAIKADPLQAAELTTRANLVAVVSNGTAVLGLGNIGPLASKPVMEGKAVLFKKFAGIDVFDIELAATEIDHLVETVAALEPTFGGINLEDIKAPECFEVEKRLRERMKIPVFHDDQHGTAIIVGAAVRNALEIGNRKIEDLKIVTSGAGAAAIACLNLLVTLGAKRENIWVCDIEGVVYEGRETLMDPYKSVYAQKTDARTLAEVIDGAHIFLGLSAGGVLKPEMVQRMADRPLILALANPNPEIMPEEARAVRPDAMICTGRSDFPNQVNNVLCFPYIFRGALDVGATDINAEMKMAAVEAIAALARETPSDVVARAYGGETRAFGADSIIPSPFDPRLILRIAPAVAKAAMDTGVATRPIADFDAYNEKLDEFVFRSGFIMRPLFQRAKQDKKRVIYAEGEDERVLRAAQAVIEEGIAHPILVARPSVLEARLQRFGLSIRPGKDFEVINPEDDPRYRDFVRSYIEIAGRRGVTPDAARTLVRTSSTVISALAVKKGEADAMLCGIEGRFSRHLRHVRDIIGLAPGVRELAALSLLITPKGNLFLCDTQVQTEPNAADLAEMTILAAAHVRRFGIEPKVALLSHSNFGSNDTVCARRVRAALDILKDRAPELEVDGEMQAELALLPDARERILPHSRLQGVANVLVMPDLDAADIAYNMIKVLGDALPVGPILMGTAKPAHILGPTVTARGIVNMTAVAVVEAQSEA

[2] = molecular target: T2, Aeropyrum pernix malate dehydrogenase, ApMDH (Aeropyrum pernix, UniProt Q9YEA1); experiment: spectrophotometric NADH formation at […] nm; format: biochemical; details: L-malate as co-substrate
T2 sequence (Q9YEA1 1-308): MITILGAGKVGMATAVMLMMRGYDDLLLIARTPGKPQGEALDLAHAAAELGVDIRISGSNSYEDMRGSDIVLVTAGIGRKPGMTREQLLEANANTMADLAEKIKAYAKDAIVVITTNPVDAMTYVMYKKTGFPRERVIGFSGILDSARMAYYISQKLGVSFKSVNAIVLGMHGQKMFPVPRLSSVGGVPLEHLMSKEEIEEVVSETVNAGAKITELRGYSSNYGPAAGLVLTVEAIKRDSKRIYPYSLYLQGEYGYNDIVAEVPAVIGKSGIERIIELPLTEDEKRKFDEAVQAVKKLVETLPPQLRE

## NC(=O)c1ccc[n+]([C@@H]2O[C@H](COP(=O)(O)OP(=O)(O)OC[C@H]3O[C@@H](n4cnc5c(N)ncnc54)[C@H](O)[C@@H]3O)[C@@H](O)[C@H]2O)c1 [NAD^+]
[1]
  spectrophotometric NADH formation at 340 nm: oxidation of L‐malate was accompanied by reduction of NAD^+ to NADH
[2]
  spectrophotometric NADH formation at 340 nm: oxidation of L‐malate was accompanied by reduction of NAD^+ to NADH
